From patent US20170216328A1, “METHODS AND COMPOSITIONS FOR MICROBIOME ALTERATION” (Ritter Pharmaceuticals, Inc., priority 2014, published 2017)

Test system: Bifidobacterium species and strains
Assay: Comparative growth of Bifidobacterium species and strains in scratch MRS with 2% carbohydrate
Format: cell-based
Description: The objective of the study was to determine the ability of various Bifidobacterium species and strains to grow on galactooligosaccharides
The growth of Lactobacillus and Bifidobacterium strains was evaluated in scratch MRS (Table 16) supplemented with 2% of a carbohydrate solution. The carbohydrates used in the experiments were: Glucose—Fisher; Lactose—Fisher; GOS1-95% GOS purity from Inalco SPA—Provided by Ritter Pharmaceuticals; GOS2-90% GOS purity from GTC—provided by Ritter Pharmaceuticals.
Carbohydrate stock solutions were filter sterilized and then added to either a scratch MRS formulation (Table 16), or a semisynthetic medium (Table 17).
Lactobacillus and Bifidobacterium cultures were propagated in MRS broth overnight, and then transferred once through the test medium. For growth experiments, cultures were inoculated into the MRS scratch medium containing one of the 4 carbohydrates to be examined. Growth was monitored either: **automatically, using a FLUOStar OPTIMA microtiter plate reader to monitor the change in absorbance (A600) as a function of the time. The strains were incubated at 37 C aerobically for these experiments; or ** manually, using a standard spectrophotometer to monitor the change in OD600 nm over time, in 5 ml liquid culture tubes. These cultures were incubated anaerobically at 37° C. in a COY anaerobic chamber, flushed with anaerobic gas. […]

OC[C@H]1O[C@@H](O[C@H]2[C@H](O)[C@@H](O)C(O)O[C@@H]2CO)[C@H](O)[C@@H](O)[C@H]1O (stereo partly shown) [lactose]
Growth of Bifidobacterium strains on lactose: none of the Bifidobacterium strains used in these experiments grew on lactose, except for B. pseudolongum
